The subject of data set [1] is arterial-wall SMase. Particulars: for hydrolysis of LDL-sphingomyelin by rabbit aorta ex vivo (summary statement): Example 4 restatement.
Method: Hydrolysis of [^3H]SM-LDL by strips of rabbit aorta. Aortae were isolated from rabbits fed a high-cholesterol diet for 18 d and incubated ex vivo for 3.5 h at 37° C. with 2 mg [^3H]palmitate-SM-labeled LDL per ml DMEM/0.2% BSA (usually ^18 12 mg total). Material extracted from these strips (Retained) was assayed for [^3H]SM and [^3H]ceramide; approximately 0.1% of the [^3H]SM-LDL (10-20 μg LDL protein) was retained during the 3.5-h incubation period. These [^3H]lipids were also assayed in ^3[H]SM-LDL not exposed to aorta but incubated in extraction buffer (No Aorta) as well as in [^3H]SM-LDL that was not retained by the aortic strips (i.e., still present in the medium after the 3.5-h incubation) and also incubated in extraction buffer (Unretained). For experiments #1 and #2 (FIG. 6A), portions of the aortic strips were preincubated with DMEM/0.2% BSA containing 15 mM EDTA for 30 min, and the 3.5-h incubation was also carried out in the presence of 15 mM EDNA.
Assay for LDL-SM hydrolysis by strips of rabbit aorta ex vivo. New Zealand white male rabbits (2-3 kg) were fed a chow diet containing 0.2% cholesterol and 10% soybean oil (w/w) for 18 days. The animals were sacrificed, and the thoracic aortae were removed rapidly and placed in a dissection dish with physiological Hank's Trizma maleate buffer (133 mM NaCl, 3.6 mM KCl, 1.0 mM CaCl2, 5.0 mM Trizma maleate, 16 mM dextrose, pH 7.3). The aortae were then further dissected to remove excess fat and any clotted blood and then cut longitudinally and pinned, lumen side up, in a tissue culture dish. The aortic strips were washed several times with DMEM/0.2% BSA and incubated at 37° C. for 3.5 h in DMEM/0.2% BSA containing 2 mg [^3H]SM-labeled LDL per ml. […] When present, these reagents were also added to the corresponding incubation media containing labeled LDL (see legend to FIG. 5). After the 3.5-h incubation of labeled LDL with aortic strips, media were removed (see below), the aortic strips were quickly washed twice in ice-cold PBS, and the center of the strip was cut away from the original cut ends. These center pieces were then minced and extracted in PBS, pH 7.4, containing 6 M guanidine-HCl, 5 mM EDTA, 0.02% sodium azide, 35 μM leupeptin, 1.5 mg aprotinin/ml, and 5 μM pepstatin A for 36 h at 4° C. The extract was centrifuged at 35,000×g for 30 min, and lipids were extracted from the supernate by the method of Bligh and Dyer (Bligh et al., 1959). [^3H]palmitate-SM, ^3 [H]palmitate-ceramide, and free [^3H]palmitate in the lipid extracts were separated by TLC using chloroform:methanol (95:5, v/v) or n-propanol:12.5% ammonium hydroxide (80:20, v/v). […]
The target in data set [2] is T1, S-SMase (Mus musculus, UniProt Q04519).
T1 construct: endogenous in cells; host or cells: J774.A1 macrophages, serum-free conditioned medium
T1 sequence (Q04519 45-627): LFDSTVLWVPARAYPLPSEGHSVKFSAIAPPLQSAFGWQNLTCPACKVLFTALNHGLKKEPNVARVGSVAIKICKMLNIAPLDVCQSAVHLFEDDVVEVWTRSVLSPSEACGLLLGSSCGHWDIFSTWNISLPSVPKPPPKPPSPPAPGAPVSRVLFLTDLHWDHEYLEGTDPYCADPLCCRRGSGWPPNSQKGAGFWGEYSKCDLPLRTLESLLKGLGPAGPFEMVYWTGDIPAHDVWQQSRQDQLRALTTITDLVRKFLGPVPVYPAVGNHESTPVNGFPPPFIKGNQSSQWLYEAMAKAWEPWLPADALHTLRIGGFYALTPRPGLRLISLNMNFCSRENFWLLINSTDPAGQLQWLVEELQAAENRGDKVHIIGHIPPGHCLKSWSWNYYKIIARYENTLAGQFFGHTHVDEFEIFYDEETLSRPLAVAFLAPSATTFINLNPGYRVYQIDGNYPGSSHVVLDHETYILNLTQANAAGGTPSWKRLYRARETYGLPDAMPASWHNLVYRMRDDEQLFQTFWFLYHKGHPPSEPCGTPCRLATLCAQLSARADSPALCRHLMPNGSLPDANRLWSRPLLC
Briefly: SMase assay of conditioned medium from J774 macrophages (SM micelles, pH 5.0). Format: biochemical. Particulars: treatment with EDTA alone. As for the experimental part: FIGS. 14A-B. Sequential chelation and addition of Zn^2+ to secreted and intracellular SMase. Serum-free conditioned medium and a cell homogenate from J774 macrophages were prepared as described in “Experimental Procedures”. FIG. 14A, conditioned medium (CM) was assayed for SMase activity using 250 nM [^3H]sphingomyelin in Triton X-100 micelles in the presence of either 5 mM EDTA (first bar) or 0.1 mM ZnCl2 (second bar) for 1 h at 37° C. at pH 5.0. An aliquot of the Zn-activated conditioned medium was then incubated for 18 h in the presence of 10 mM EDTA, 10 mM 1,10-phenanthroline, and 0.6% Triton X-100 at 4° C. (EDTA PHNANTH) and then assayed for SMase activity (third bar). After chelation, a portion of this partially inactivated conditioned medium was then dialyzed against zinc-containing buffer C (150 mM NaCl, 10 mM Tris-HCl, 1 mM ZnCl2, 0.6% Triton X-100, pH 7.4) for 18 h and then assayed for SMase activity (fourth bar). FIG. 14B, an aliquot of cell homogenate (Cell Homgn) was assayed for SMase activity in the presence of assay buffer alone (first bar), 5 mM EDTA (second bar), or 0.1 mM ZnCl2 (third bar). Another aliquot of cell homogenate was incubated for 8 h in the presence of 10 mM EDTA, 10 mm 1,10-phenanthroline, and 0.6% Triton X-100 (EDTA PHNANTH) at 4° C. and then assayed for SMase activity (fourth bar). An aliquot of this chelator-treated cell homogenate was then dialyzed against zinc-containing buffer C for 18 h and then assayed for SMase activity (fifth bar).
(§1) SMase Assay—As previously described (Schissel et al., 1996), the standard 200-μl assay mixture consisted of up to 40 μl of sample (conditioned media or homogenized cells; see above) and a volume of assay buffer (0.1 M sodium acetate, pH 5.0) to bring the volume to 160 μl. […] The ceramide spots were scraped and directly counted to quantify [^3H]ceramide. Typically, the assay reactions contained approximately 20 μg of cellular homogenate protein and a volume of conditioned media derived from a quantity of cells equivalent to approximately 50 μg of cellular protein.

The target of data set [3] is T2, L-SMase (Mus musculus, UniProt Q04519).
T2 construct: endogenous in cells; host or cells: J774.A1 macrophages, sonicated cell homogenate
T2 sequence (Q04519 45-627): T1 sequence (Q04519 45-627)
Briefly: SMase assay of cell homogenate from J774 macrophages (SM micelles, pH 5.0). Format: biochemical. The following applies: 5 mM EDTA in assay. As for the experimental part:
FIGS. 14A-B. Sequential chelation and addition of Zn^2+ to secreted and intracellular SMase. Serum-free conditioned medium and a cell homogenate from J774 macrophages were prepared as described in “Experimental Procedures”. FIG. 14A, conditioned medium (CM) was assayed for SMase activity using 250 nM [^3H]sphingomyelin in Triton X-100 micelles in the presence of either 5 mM EDTA (first bar) or 0.1 mM ZnCl2 (second bar) for 1 h at 37° C. at pH 5.0. An aliquot of the Zn-activated conditioned medium was then incubated for 18 h in the presence of 10 mM EDTA, 10 mM 1,10-phenanthroline, and 0.6% Triton X-100 at 4° C. (EDTA PHNANTH) and then assayed for SMase activity (third bar). […]
as §1

For data set [4], the target named is B. cereus SMase (Bacillus cereus, UniProt P11889). The following applies: 25 mM EDTA present from the start; 50 mU B. cereus SMase/ml, LDL 2 mg/ml, 37° C.
Sequence of B. cereus SMase (P11889 28-333): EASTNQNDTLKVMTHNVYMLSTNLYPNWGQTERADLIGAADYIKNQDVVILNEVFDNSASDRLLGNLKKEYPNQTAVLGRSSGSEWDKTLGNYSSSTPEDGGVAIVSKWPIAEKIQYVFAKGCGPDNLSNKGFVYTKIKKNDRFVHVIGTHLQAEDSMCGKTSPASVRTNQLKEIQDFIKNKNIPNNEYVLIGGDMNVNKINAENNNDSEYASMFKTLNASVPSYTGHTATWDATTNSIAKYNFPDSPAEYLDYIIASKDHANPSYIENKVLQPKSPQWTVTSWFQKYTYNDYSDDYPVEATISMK
Method: Kinetics of SM hydrolysis and LDL aggregation induced by SMase and the effects of enzymatic inhibition. FIG. 1A: LDL (2 mg/ml) was incubated with 50 mU B. cereus SMase/ml at 37° C. in PES containing 5 nM MgCl2. At the indicated time points, aliquots of the LDL were harvested then assayed for extent of SM hydrolysis (closed triangles) and for aggregation (open squares) FIG. 1B. LDL was incubated in PBS containing 5 mM MgCl2 in the absence of SMase (filled circles), or in the presence of SMase without EDTA (open squares), with 25 mM EDTA present from the start of the incubation (open triangles), or with 25 mM EDTA added after 20 min of incubation (closed triangles) Samples were assayed for turbidity at the indicated timepoints. FIG. 1C, Aliquots from the 180-min timepoint in FIG. 1B were assayed for SM content.
Careful analysis of the time course of B. cereus SMase-induced LDL aggregation and LDL-SM hydrolysis was done. […] These kinetics are consistent with two possible mechanisms: a slow structural action of SMase, or a rapid enzymatic action that alters the particles so that they then slowly aggregate. To distinguish between these possibilities, EDTA was used to inhibit the enzymatic activity of the bacterial B. cereus SMase, which is a Mg^2+-dependent enzyme (Ikezawa et al., 1986).
For data set [5], the system named is lysosomal hydrolases. The experiment in a line: 125I-EGF degradation by aortic strips. On the set-up: species or system rabbit. Particulars: 200 μM chloroquine, 3.5 h.
Method: Iodination of EGF and assay for ^125I-EGF degradation. Epidermal growth factor (50 μg) was radioiodinated to a specific activity of 5400 counts/min/ng (IODOBEADS®, Pierce Chemical Co., Rockford, Ill.) and was used within 48 h of labeling.
For this study, ^125I-labeled epidermal growth factor (^125I-EGF) was used, which is known to be internalized by receptor-mediated endocytosis and degraded in lysosomes in many cell types (Goldstein et al., 1985).
Data set [6] addresses T3, lysosomal SMase (Homo sapiens, UniProt P17405).
T3 construct: endogenous in cells; host or cells: cultured human fibroblasts
T3 sequence (P17405 47-631): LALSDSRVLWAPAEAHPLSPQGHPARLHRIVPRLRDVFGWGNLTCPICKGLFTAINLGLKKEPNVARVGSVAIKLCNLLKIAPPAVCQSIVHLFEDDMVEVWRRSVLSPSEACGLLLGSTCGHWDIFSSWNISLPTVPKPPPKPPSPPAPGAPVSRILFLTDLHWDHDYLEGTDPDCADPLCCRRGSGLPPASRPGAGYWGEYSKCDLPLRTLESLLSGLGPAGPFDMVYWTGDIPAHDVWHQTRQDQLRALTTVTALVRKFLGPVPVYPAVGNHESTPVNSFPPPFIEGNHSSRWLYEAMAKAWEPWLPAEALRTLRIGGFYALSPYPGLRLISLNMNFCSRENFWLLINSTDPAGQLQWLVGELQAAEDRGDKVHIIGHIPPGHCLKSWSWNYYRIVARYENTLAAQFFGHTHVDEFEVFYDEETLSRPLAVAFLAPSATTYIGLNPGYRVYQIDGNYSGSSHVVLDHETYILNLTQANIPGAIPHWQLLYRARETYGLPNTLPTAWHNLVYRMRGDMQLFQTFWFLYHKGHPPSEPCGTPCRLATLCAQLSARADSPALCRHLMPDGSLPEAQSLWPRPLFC
Briefly: Cellular hydrolysis of [3H]SM-LDL by cultured human fibroblasts. Format: cell-based. The following applies: read-out: inhibition of cellular hydrolysis of [3H]SM-LDL.
Method: Second, the ability of chloroquine to work in the aortic strip assay was tested.

The test system of data set [7] is S-SMase secretion by HUVECs. Briefly: Cytokine regulation of S-SMase secretion by HUVECs (SMase activity in conditioned media). Particulars: 18 h, IL-1β 5 ng/ml, interferon-γ 1000 units/ml. The data set is classed as cell-based, human.
Method: The cells were then washed 3 times with PBS and incubated for 24 h in 1 ml fresh serum-free media containing 0.2%6 BSA. This 24-h conditioned medium was collected for SMase assays.
Harvesting of Cells and Conditioned Media—Following the incubations described above and in the figure legends, cells were placed on ice and the serum-free conditioned media was removed. The cells were washed two times with ice-cold 0.25 M sucrose and scraped into 0.3 ml and 3.0 ml of this sucrose solution per 35-mm and 100-mm dishes, respectively. Unless indicated otherwise, the scraped cells were disrupted by sonication on ice using three 5-second bursts (Branson 450 Sonifier), and the cellular homogenates were assayed for total protein by the method of Lowry et al. (22) and for SMase activity as described below. The conditioned media were spun at 800×g for 5 min to pellet any contaminating cells and concentrated six-fold using a Centriprep 30 (Amicon; Beverly, Mass.) concentrator (molecular weight cut off=30,000).
Typically, our assay reactions contained approximately 20 μg of cellular homogenate protein and a volume of conditioned media derived from a quantity of cells equivalent to approximately 50 μg of cellular protein.
Data set [8] deals with L-SMase of HUVECs. Briefly: Cytokine regulation of L-SMase activity in HUVEC cell homogenates. The data set is classed as cell-based, human. Particulars: cytokine-treated endothelial cells. The method, then: FIGS. 23A-B. Cytokine regulation of S- and L-SMase of HUVECs. […] Conditioned media (FIG. 23A) and cell homogenates (FIG. 23B) from these cells were then assayed for SMase activity in the presence or absence of 0.1 mM ZnCl2, respectively.
Cells—Primary cultures of HUVEC were obtained from fresh umbilical cords and maintained in cell culture as previously described (31). Human coronary artery endothelial cells from a donor were purchased from Clonetics Corp. (San Diego, Calif.; cat. # CC-2585, Strain #3033). The cells were grown in endothelial basal media (EBM) (Clonetics) supplemented with 10% HI-FES; 10 μg endothelial cell growth supplement/ml (Sigma; cat. # E0760) and 50 μg gentamicin/ml. Primary cultures of bovine aortic endothelial, cells were established and subcultured as described previously (32). […]

The subject of data set [9] is EC matrix. Briefly: 125I-S-SMase binding to matrix derived from cultured cells. Particulars: in presence of lipoprotein lipase. From the text: In vitro, Smase causes lipoprotein aggregation, which is a key feature of atheromata and an inducer of foam cells. […] We have identified S-Mase (JBC 271:18431) as a candidate for this arterial Smase, owing to its secretion by endothelial cells (ECs) and macrophages and for its ability to hydrolzye atherogenic lipoproteins (JBC 273:2738 & 4081). We addressed two questions critical to the role of S-SMase in atherogenesis: is S-SMase present in lesions and does S-SMase bind matrix after secretion? Using two different anti-SMase antibodies, Smase staining was prominent in the endothelium of normal rabbit and mouse aorta. In atherosclerotic aorta from cholesterol-fed rabbits and apoE knockout mice and in human coronary lesions, there was very heavy Smase staining throughout the entire intima (endothelium and foam cells). In both normal and lesional aorta, there was staining of the mdia but far less than in the intima. […] To explore this point in vitro, ^125I-S-SMase was incubated with matrix derived from cultured smooth muscle or Ecs. With both, the moles of bound ^125I-S-SMase were≧bound ^125I-LDL, which is known to associate with matrix in vitro and in vivo. […] In summary, Smase, an enzyme implicated in atherogenesis, is present in normal endothelium and especially lesional intima, and there is evidence that S-Mase binds matrix both in vivo and in vitro.

Turning to `O=C(O)CN(CCN(CC(=O)O)CC(=O)O)CC(=O)O` [EDTA], the “decrease in generation of ceramide in extracted (retained) material” value in data set [1] (15 mM EDTA, 30 min preincubation and 3.5-h incubation with [3H]SM-LDL) is reported as “approximately 50%”. For the same molecule, in [1], the “hydrolysis of LDL-sphingomyelin by rabbit aorta ex vivo (summary statement)” value is recorded as “inhibited”. In addition, in data set [2], the “effect on S-SMase enzyme activity” value was “did not affect enzyme activity”. Besides, the “inhibition of L-SMase in cell homogenates” value in [3] is “not inhibited”. In data set [4], the “inhibition of LDL aggregation (turbidity)” value is “complete inhibition” and the “inhibition of LDL-SM hydrolysis” value is “complete inhibition”.
One may read the inhibition as the change of the read-out against control, counted positive when it falls. As for `CCN(CC)CCCC(C)Nc1ccnc2cc(Cl)ccc12` (stereo not shown) [chloroquine], in data set [5], the “block of degradation of 125I-EGF” value is recorded as 50%. Also, the “inhibition of [3H]ceramide enrichment of retained material” value in data set [1] (200 μM chloroquine, 30 min preincubation and 3.5-h incubation) was “no substantial inhibition”. The “hydrolysis of LDL-sphingomyelin by rabbit aorta ex vivo (summary statement)” value in [1] is recorded as “not inhibited”. In [6], the inhibition at 50 µM is 73%.

B1: interferon-γ: human recombinant interferon-γ (protein, UniProt P01579 24-161, looked up)
Interferon gamma: QDPYVKEAENLKKYFNAGHSDVADNGTLFLGILKNWKEESDRKIMQSQIVSFYFKLFKNFKDDQSIQKSVETIKEDMNVKFFNSNKKKRDDFEKLTNYSVTDLNVQRKAIHELIQVMAELSPAAKTGKRKRSQMLFRG
For B1, in data set [7], the “increase of S-SMase activity / secretion (conditioned media)” value was about 3 fold. In data set [8], the “L-SMase (lysosomal SMase) activity” value is “decreased”.

B2: lipoprotein lipase: arterial-wall enzyme (protein, UniProt P06858 28-475, looked up)
Lipoprotein lipase: ADQRRDFIDIESKFALRTPEDTAEDTCHLIPGVAESVATCHFNHSSKTFMVIHGWTVTGMYESWVPKLVAALYKREPDSNVIVVDWLSRAQEHYPVSAGYTKLVGQDVARFINWMEEEFNYPLDNVHLLGYSLGAHAAGIAGSLTNKKVNRITGLDPAGPNFEYAEAPSRLSPDDADFVDVLHTFTRGSPGRSIGIQKPVGHVDIYPNGGTFQPGCNIGEAIRVIAERGLGDVDQLVKCSHERSIHLFIDSLLNEENPSKAYRCSSKEAFEKGLCLSCRKNRCNNLGYEINKVRAKRSSKMYLKTRSQMPYKVFHYQVKIHFSGTESETHTNQAFEISLYGTVAESENIPFTLPEVSTNKTYSFLIYTEVDIGELLMLKLKWKSDSYFSWSDWWSSPGFAIQKIRVKAGETQKKVIFCSREKVSHLQKGKAPAVFVKCHDKSLNKKSG
As to B2, the “S-SMase binding to matrix” value in data set [9] is listed as “enhanced”.
